These results are taken from patent US20240383886A1, “Protein Tyrosine Phosphatase Degraders and Methods of Use Thereof” (CALICO LIFE SCIENCES LLC, priority 2019, published 2024).

Molecules are shown by their SMILES.

By DC50 is commonly meant the concentration at which degradation of the target reaches its halfway point. Read a high DC50 as degradation only at high concentration.

Test [1] concerns the target T1, PTPN2 (Homo sapiens, UniProt P17706).
T1 construct: expressed in transfected cells; host or cells: 293T (293T.109 HiBiT-PTPN2 line; parental 293T WT from ATCC)
T1 sequence (P17706 1-415): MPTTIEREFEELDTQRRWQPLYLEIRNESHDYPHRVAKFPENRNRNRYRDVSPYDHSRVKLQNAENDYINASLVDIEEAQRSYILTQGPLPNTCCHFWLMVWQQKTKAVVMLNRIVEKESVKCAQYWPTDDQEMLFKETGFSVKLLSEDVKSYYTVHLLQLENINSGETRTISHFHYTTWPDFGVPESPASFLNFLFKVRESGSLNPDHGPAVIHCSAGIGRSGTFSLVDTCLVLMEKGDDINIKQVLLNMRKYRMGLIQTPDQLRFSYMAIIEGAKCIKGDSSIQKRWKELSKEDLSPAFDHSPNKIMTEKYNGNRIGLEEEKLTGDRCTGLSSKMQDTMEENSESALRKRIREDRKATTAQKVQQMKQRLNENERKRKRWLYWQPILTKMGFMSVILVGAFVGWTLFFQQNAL
In words: HiBiT-Degradation 293T.109 PTPN2 (Nano-Glo HiBiT Lytic Assay). The class given is cell-based. As to conditions: 293T.109 (HiBiT-PTPN2) cells, 24.0 hours. In a few lines: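 Luminescence from a lytic HiBiT read gave PTPN2 levels after 24 h compound exposure at 37° C. Compounds were tested at 11 half-log points from a 10 μM top concentration, in duplicate. The cells were 293T engineered with an N-terminal HiBiT–PTPN2 fusion, plated at 5000 per well, with untreated wells as negative control and no-reagent wells as positive control.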
For orientation: HiBiT is a short tag that completes a luciferase, so light tracks the accessible tagged protein.

Test [2] has as its system PTPN2. The test is described as follows: HiBiT-Degradation B16F10.4 PTPN2. The format is cell-based. Particulars: B16F10.4 cells, 24.0 hours.

On to `Cn1c(=O)n(C2CCC(=O)NC2=O)c2ccc(Nc3ccc(CC(=O)Nc4ccc5c(F)c(N6CC(=O)NS6(=O)=O)c(O)cc5c4)cc3)cc21` (stereo not shown) [Example 105, 2-[4-[[1-(2,6-dioxo-3-piperidyl)-3-methyl-2-oxo-benzimidazol-5-yl]amino]phenyl]-N-[5-fluoro-7-hydroxy-6-(1,1,4-trioxo-1,2,5-thiadiazolidin-2-yl)-2-naphthyl]acetamide], for which the 50% degradation concentration (DC50) at PTPN2 [1] and in the test on PTPN2 [2] was 10 to 50 nM in each case.
Regarding `Cn1c(=O)n(C2CCC(=O)NC2=O)c2ccc(-c3ccc(CNC(=O)c4ccc5c(F)c(N6CC(=O)NS6(=O)=O)c(O)cc5c4)cc3)cc21` (stereo not shown) [Example 106], the DC50 at PTPN2 [1] and in the test with PTPN2 [2] was 200 to 1000 nM each time.
Regarding `Cn1c(=O)n(C2CCC(=O)NC2=O)c2ccc(C3CCN(CCS(=O)(=O)N4CC=C(c5ccc6cc(O)c(N7CC(=O)NS7(=O)=O)c(F)c6c5)C4)CC3)cc21` (stereo not shown) [Example 107, 3-(5-(1-(2-((3-(7-(1,1-dioxido-4-oxo-1,2,5-thiadiazolidin-2-yl)-8-fluoro-6-hydroxynaphthalen-2-yl)-2,5-dihydro-1H-pyrrol-1-yl)sulfonyl)ethyl)piperidin-4-yl)-3-methyl-2-oxo-2,3-dihydro-1H-benzo[d]imidazol-1-yl)piperidine-2,6-dione], the DC50 on PTPN2 [1] and in the test on PTPN2 [2] was 50 to 200 nM in each case.
`CN(c1ccc(C2CCN(CC(=O)Nc3ccc4c(F)c(N5CC(=O)NS5(=O)=O)c(O)cc4c3)CC2)cc1)C1CCC(=O)NC1=O` (stereo not shown) [Example 108, 2-[4-[4-[(2,6-dioxo-3-piperidyl)-methyl-amino]phenyl]-1-piperidyl]-N-[5-fluoro-7-hydroxy-6-(1,1,4-trioxo-1,2,5-thiadiazolidin-2-yl)-2-naphthyl]acetamide]: the half-maximal degradation concentration (DC50) on PTPN2 [1] was 200 to 1000 nM; in the test with PTPN2 [2], not below 1000 nM.
As for `Cn1c(=O)n(C2CCC(=O)NC2=O)c2ccc(N3CCC(C4CCN(C(=O)COc5ccc6cc(O)c(N7CC(=O)NS7(=O)=O)c(F)c6c5)CC4)CC3)cc21` (stereo not shown) [Example 109, 3-[5-[4-[1-[2-[[8-fluoro-6-hydroxy-7-(1,1,4-trioxo-1,2,5-thiadiazolidin-2-yl)-2-naphthyl]oxy]acetyl]-4-piperidyl]-1-piperidyl]-3-methyl-2-oxo-benzimidazol-1-yl]piperidine-2,6-dione], the 50% degradation concentration (DC50) at PTPN2 [1] lay within 200 to 1000 nM; with PTPN2 [2], 50 to 200 nM.
Turning to `Cn1c(=O)n(C2CCC(=O)NC2=O)c2ccc(N3CCN(CCn4cc(-c5ccc6cc(O)c(N7CC(=O)NS7(=O)=O)c(F)c6c5)cn4)CC3)cc21` (stereo not shown) [Example 110, 3-[5-[4-[2-[4-[8-fluoro-6-hydroxy-7-(1,1,4-trioxo-1,2,5-thiadiazolidin-2-yl)-2-naphthyl]pyrazol-1-yl]ethyl]piperazin-1-yl]-3-methyl-2-oxo-benzimidazol-1-yl]piperidine-2,6-dione], the DC50 was in the range of 10 to 50 nM on PTPN2 [1] and 50 to 200 nM in the test on PTPN2 [2].
The corresponding values for `O=C(CCCCOc1ccc2cc(O)c(N3CC(=O)NS3(=O)=O)c(F)c2c1)NCCCc1ccc2c3c(cccc13)C(=O)N2C1CCC(=O)NC1=O` (stereo not shown) [Example 111, N-[3-[1-(2,6-dioxo-3-piperidyl)-2-oxo-benzo[cd]indol-6-yl]propyl]-5-[[8-fluoro-6-hydroxy-7-(1,1,4-trioxo-1,2,5-thiadiazolidin-2-yl)-2-naphthyl]oxy]pentanamide] are 10 to 50 nM and 50 to 200 nM.
The corresponding values for `Cn1c(=O)n(C2CCC(=O)NC2=O)c2ccc(C3CCN(CC(=O)N4CC(Oc5ccc6cc(O)c(N7CC(=O)NS7(=O)=O)c(F)c6c5)C4)CC3)cc21` (stereo not shown) [Example 112, 3-[5-[1-[2-[3-[[8-fluoro-6-hydroxy-7-(1,1,4-trioxo-1,2,5-thiadiazolidin-2-yl)-2-naphthyl]oxy]azetidin-1-yl]-2-oxo-ethyl]-4-piperidyl]-3-methyl-2-oxo-benzimidazol-1-yl]piperidine-2,6-dione] are 10 to 50 nM and 50 to 200 nM.
Consider `O=C1CCC(Nc2ccc(C3CCN(CC(=O)Nc4ccc5c(F)c(N6CC(=O)NS6(=O)=O)c(O)cc5c4)CC3(F)F)cc2)C(=O)N1` (stereo not shown) [Example 113, 2-[4-[4-[(2,6-dioxo-3-piperidyl)amino]phenyl]-3,3-difluoro-1-piperidyl]-N-[5-fluoro-7-hydroxy-6-(1,1,4-trioxo-1,2,5-thiadiazolidin-2-yl)-2-naphthyl]acetamide], for which the DC50 on PTPN2 [1] and in the test on PTPN2 [2] was 200 to 1000 nM in each case.
As to `Cn1nc(C2CCC(=O)NC2=O)c2ccc(C3CCN(CC(=O)Nc4ccc5c(F)c(N6CC(=O)NS6(=O)=O)c(O)cc5c4)CC3(F)F)cc21` (stereo not shown) [Example 114, N-(6-(1,1-dioxido-4-oxo-1,2,5-thiadiazolidin-2-yl)-5-fluoro-7-hydroxynaphthalen-2-yl)-2-(4-(3-(2,6-dioxopiperidin-3-yl)-1-methyl-1H-indazol-6-yl)-3,3-difluoropiperidin-1-yl)acetamide], the DC50 at PTPN2 [1] and in the test on PTPN2 [2] was 50 to 200 nM in each case.
In the case of `Cn1c(=O)n(C2CCC(=O)NC2=O)c2ccc(C3CCN(CC(=O)N4CC(c5ccc6c(F)c(N7CC(=O)NS7(=O)=O)c(O)cc6c5)C4)CC3)cc21` (stereo not shown) [Example 115, 3-(5-(1-(2-(3-(6-(1,1-dioxido-4-oxo-1,2,5-thiadiazolidin-2-yl)-5-fluoro-7-hydroxynaphthalen-2-yl)azetidin-1-yl)-2-oxoethyl)piperidin-4-yl)-3-methyl-2-oxo-2,3-dihydro-1H-benzo[d]imidazol-1-yl)piperidine-2,6-dione], the DC50 at PTPN2 [1] and in the test on PTPN2 [2] was 200 to 1000 nM throughout.
With `Cn1c(=O)n(C2CCC(=O)NC2=O)c2ccc(-c3ccc(CCC(=O)Nc4ccc5c(F)c(N6CC(=O)NS6(=O)=O)c(O)cc5c4)cc3)cc21` (stereo not shown) [Example 116, N-(6-(1,1-dioxido-4-oxo-1,2,5-thiadiazolidin-2-yl)-5-fluoro-7-hydroxynaphthalen-2-yl)-3-(4-(1-(2,6-dioxopiperidin-3-yl)-3-methyl-2-oxo-2,3-dihydro-1H-benzo[d]imidazol-5-yl)phenyl)propanamide], the DC50 on PTPN2 [1] and with PTPN2 [2] was 50 to 200 nM each time.
With `Cn1nc(C2CCC(=O)NC2=O)c2ccc(C3CCN(C4CC(C(=O)Nc5ccc6c(F)c(N7CC(=O)NS7(=O)=O)c(O)cc6c5)C4)CC3(F)F)cc21` (stereo not shown) [Example 117, N-(6-(1,1-dioxido-4-oxo-1,2,5-thiadiazolidin-2-yl)-5-fluoro-7-hydroxynaphthalen-2-yl)-3-(4-(3-(2,6-dioxopiperidin-3-yl)-1-methyl-1H-indazol-6-yl)-3,3-difluoropiperidin-1-yl)cyclobutanecarboxamide], the DC50 at PTPN2 [1] was in the range of 10 to 50 nM; with PTPN2 [2], 50 to 200 nM.
Taken in the same sequence, the figures for `Cn1c(=O)n(C2CCC(=O)NC2=O)c2ccc(-c3ccc(CC(=O)Nc4ccc5c(F)c(N6CC(=O)NS6(=O)=O)c(O)cc5c4)cc3F)cc21` (stereo not shown) [Example 118, N-(6-(1,1-dioxido-4-oxo-1,2,5-thiadiazolidin-2-yl)-5-fluoro-7-hydroxynaphthalen-2-yl)-2-(4-(1-(2,6-dioxopiperidin-3-yl)-3-methyl-2-oxo-2,3-dihydro-1H-benzo[d]imidazol-5-yl)-3-fluorophenyl)acetamide] were 50 to 200 nM and 10 to 50 nM.
